Results published in patent US4957927A, “(Diarylmethoxy alkyl)-1-pyrrolidines and piperidines having cardiovascular activity” (Lipha, Lyonnaise Industrielle Pharmaceutique, priority 1988, dated 1990).
Where a name gives a salt, the structure may show the parent alone.

Key:
[1] = test system: isolated depolarized artery of the rabbit's ear; assay: decrease in perfusion pressure (calcium-inhibitive effect) on the isolated depolarized artery of the rabbit's ear; conditions: Table 1; single dose of 10 μg injected into the perfusion system; hyperpotassic depolarizing solution; average of at least three artery fragments; measured at peak of action
Procedure: The calcium-inhibitive effect was researched in vitro using the method described by J. M. Van Neuten (Eur. J. Pharmacol., 1969, 6, 286) on the isolated depolarized artery of the rabbit's ear:
A fragment of the central artery of the ear was cannulated and suspended in 100 ml of a Tyrode solution [NaCl: 136.90 mmole/l; KCl: 2.68 mmole/l; CaCl2 : 3.60 mmole/l; MgCl2 : 1.04 mmole/l; NaH2 PO4 : 0.42 mmole/l; glucose: 5.55 mmole/l, NaHCO3 : 11.90 mmole/l ]. The fragment was oxygenated (O2 : 95%; CO2 : 5%) and perfused with a constant 2-ml/minute flow of Tyrode at 37° C. Pressure changes in the perfusion circuit were recorded continuously using a pressure sensor. After an equilibration period, the Tyrode was replaced with a hyperpotassic depolarizing solution [NaCl: 39.33 mmole/l; KCl: 99.83 mmole/l; CaCl2 : 3.60 mmole/l; MgCl2 : 1.04 mmole/l; NaH2 PO4 : 0.42 mmole/l; glucose: 5.55 mmole/l; NaHCO3 : 11.90 mmole/l ], which, because of intracellular calcium penetration, caused significant and durable vasoconstriction, antagonized by a calcium inhibitor. The products according to the invention were tested in a single dose of 10 μg administered by injection into the perfusion system, at a rate of 0.1 ml for 10 seconds. […] The effects of the products according to the invention on vasoconstriction induced by the hyperpotassic solution were monitored for several hours. The intensity was measured at the peak of their action.
Each product was tested on at least three artery fragments. Table I includes the average decreases in perfusion pressure observed for a few products according to the invention.

[2] = target: calmodulin (Bos taurus, UniProt P62157); assay: anti-calmodulin activity (calmodulin activation of Type I cardiac phosphodiesterase); type: biochemical
Procedure: The principle of the method used is the activating effect calmodulin has on the basic enzyme activity of Type I cardiac phosphodiesterase (H. C. Ho et al., Biochim. Biophys. Acta 1976, 429, 461). Enzyme activity is measured using the W. J. Thomson and H. M. Appleman technique (Biochemistry, 1971, 10, 311).

[3] = acute oral toxicity (lethal dose 50) in rats; conditions: rat, in vivo
Source text: Thus, the compound in example 10 has a lethal dose 50 in rats greater than 1 g/kg when administered orally.

Structure (SMILES): COc1cc(OC)cc(C2CCN(CCOC(c3ccc(F)cc3)c3ccc(F)cc3)C2)c1 (stereo not shown) [Example 15, 1-[2-[bis(4-fluorophenyl)methoxy]ethyl]-3-(3,5-dimethoxyphenyl)pyrrolidine fumarate]
- % drop in perfusion pressure ± standard error [1]: 52 ± 5%

Structure (SMILES): COc1ccc(C2CCN(CCOC(c3ccccc3)c3ccccc3)C2)cc1OC (stereo not shown) [Example 4, 3-(3,4dimethoxyphenyl)-1-[2-diphenylmethoxy)ethyl]pyrrolidine oxalate]
- % drop in perfusion pressure ± standard error [1]: 54 ± 5%

Structure (SMILES): CC(C)Oc1cccc(C2CCN(CCOC(c3ccc(F)cc3)c3ccc(F)cc3)C2)c1 (stereo not shown) [Example 14, 1-[2-[bis(4-fluorophenyl)methoxy]ethyl]-3-(3-isopropoxyphenyl)pyrrolidine]
- % drop in perfusion pressure ± standard error [1]: 54 ± 5%

Structure (SMILES): Fc1ccc(C(c2ccc(F)cc2)N2CCN(C/C=C/c3ccccc3)CC2)cc1 [flunarizine, reference compound]
- % drop in perfusion pressure ± standard error [1]: 41 ± 4%

Structure (SMILES): COc1cccc(C2CCCN2CCOC(c2ccccc2)c2ccccc2)c1 (stereo not shown) [Example 11, 1-[2-(diphenylmethoxy)ethyl]-2-(3-methoxyphenyl)pyrrolidine]
- % drop in perfusion pressure ± standard error [1]: 56 ± 5%

Structure (SMILES): COc1cccc(C2CCN(CCOC(c3ccccc3)c3ccccc3)C2)c1.O=C(O)C(=O)O (stereo not shown) [Example 1, 1-[2-(diphenylmethoxy)ethyl]-3-(3-methoxyphenyl)pyrrolidine oxalate]
- % drop in perfusion pressure ± standard error [1]: 56 ± 6%

Structure (SMILES): COc1cccc(C2CCN(CCOC(c3ccc(F)cc3)c3ccc(F)cc3)C2)c1 (stereo not shown) [Example 10, 1-[2-[bis(4-fluorophenyl)methoxy]ethyl]-3-(3-methoxyphenyl)pyrrolidine]
- IC50 [2]: 83 µM
- LD50 [3]: > 1000 mg/kg
- % drop in perfusion pressure ± standard error [1]: 59 ± 4%

Structure (SMILES): COc1ccccc1C1CCN(CCOC(c2ccccc2)c2ccccc2)C1 (stereo not shown) [Example 13, 1-[2-diphenylmethoxy)ethyl]-3-(2-methoxyphenyl) pyrrolidine maleate]
- % drop in perfusion pressure ± standard error [1]: 58 ± 5%
